# Key:
# [1] = tested on: DU-145 (prostate cancer cells); assay: MTT cell survival assay, DU-145 prostate cancer cells; format: cell-based; details: Homo sapiens, MTT test, cells incubated at 37 °C for 48 h (Table 1 footnote), mean ± SEM, n = 3
# Protocol: (§1) Human cancer cell lines from bladder (T24), prostate (DU–145), breast (MCF–7) and non-tumor HEK-293 cells were obtained from the American Type Culture Collection (ATCC, Manassas, VA, USA). The cultures were maintained at a density of 1–2 × 10^5 cells/mL and the medium was changed at 48- and 72-h intervals. They were cultured in high-glucose Dulbecco’s modified Eagle medium (Gibco, Grand Island, NY, USA) supplemented with 10% fetal calf serum, penicillin (100 U/mL) and streptomycin (100 μg/mL). All cultures were kept at 37 °C in 95% air/5% CO2 at 100% humidity. Phosphate-buffered saline (PBS) was purchased from Gibco. Cells were incubated at the indicated times at 37 °C with or without compounds 1–14 at various concentrations.
# (§2) The cytotoxicity of the compounds 1–14 was assessed by following the reduction of MTT (3-(4,5-Dimethylthiazol-2-yl)-2,5-diphenyltetrazolium bromide) to formazan blue. […] Doxorubicin was used as a standard chemotherapeutic agent (positive control). Cells were washed twice with warm PBS and further incubated with MTT (0.5 mg/mL) for 2 h at 37 °C. Blue formazan crystals were solubilized by adding 100 µL DMSO/well, and the optical density of colored solutions was subsequently read at 550 nm in a microplate reader Tecan infinite M200 Pro (Männedorf, Switzerland). The compounds 1–14 were dissolved in DMSO (stock solution at 100 mM) and further diluted to be evaluated at the following concentrations: 0 μM, 1 μM, 10 μM, 20 μM, 40 μM, 60 μM, 80 μM and 100 μM. Results are expressed as % of MTT reduction compared to untreated control conditions. The IC50 values were calculated using the GraphPad Prism 8.0.2 software (San Diego, CA, USA).
# [2] = tested on: MCF-7 (mammary cancer cells); assay: MTT cell survival assay, MCF-7 mammary cancer cells; format: cell-based; details: Homo sapiens, MCF7; MTT test; cells incubated at 37 °C for 48 h (Table 1 footnote); mean ± SEM, n = 3
# Protocol: as §1, §2
# [3] = tested on: T24 (Urinary bladder cancer cells); assay: MTT cell survival assay, T24 urinary bladder cancer cells; format: cell-based; details: Homo sapiens; MTT test; cells incubated at 37 °C for 48 h (Table 1 footnote); mean ± SEM, n = 3
# Protocol: as §1, §2
# [4] = tested on: non-tumorigenic HEK-293 (embryonic kidney cells); assay: MTT cell survival assay, non-tumorigenic HEK-293 cells; format: cell-based; details: Homo sapiens, HEK293; MTT test; cells incubated at 37 °C for 48 h (Table 1 footnote); mean ± SEM, n = 3
# Protocol: as §1, §2
# [5] = tested on: HEK-293 cells/tumour cells; assay: Mean selective index, HEK-293 vs tumour cells; format: cell-based, human; details: MSI = IC50 values HEK-293 cells/IC50 values tumour cells
# Protocol: (§3) The cytotoxicity of the compounds 1–14 was assessed by following the reduction of MTT (3-(4,5-Dimethylthiazol-2-yl)-2,5-diphenyltetrazolium bromide) to formazan blue. Cells were seeded into 96-well plates at a density of 10,000 cells/well for 24 h and then they were further incubated for 24 h with or without the quinones. Doxorubicin was used as a standard chemotherapeutic agent (positive control). Cells were washed twice with warm PBS and further incubated with MTT (0.5 mg/mL) for 2 h at 37 °C. Blue formazan crystals were solubilized by adding 100 µL DMSO/well, and the optical density of colored solutions was subsequently read at 550 nm in a microplate reader Tecan infinite M200 Pro (Männedorf, Switzerland). The compounds 1–14 were dissolved in DMSO (stock solution at 100 mM) and further diluted to be evaluated at the following concentrations: 0 μM, 1 μM, 10 μM, 20 μM, 40 μM, 60 μM, 80 μM and 100 μM. Results are expressed as % of MTT reduction compared to untreated control conditions. The IC50 values were calculated using the GraphPad Prism 8.0.2 software (San Diego, CA, USA).
# [6] = Half-wave potentials by cyclic voltammetry; format: physicochemical; details: for −E^I½ (mV): acetonitrile, platinum electrode, room temperature, negative of the potential; for half-wave potential: signed value
# Protocol: Calculation of lipophilicity (ClogP) and molar refractivity (CMR) was assessed by using the ChemBioDraw Ultra 11.0 software and the obtained values are shown in Table 3. Redox potentials of 2-phenylamino-3-acyl-1,4-naphtoquinones 1–14 were measured by cyclic voltammetry at room temperature in acetonitrile as solvent using a platinum electrode and 0.1M tetraethylammonium tetrafluoroborate as the supporting electrolyte.
# [7] = tested on: DU-145, MCF-7 and T24 cancer cells; assay: Antiproliferative activity over DU-145, MCF-7 and T24 cancer cells; format: cell-based, human; details: summary of Table 1 (DU-145, MCF-7, T24)
# Protocol: as §1, §3
# [8] = tested on: CDC25A; assay: RT-qPCR mRNA level of CDC25A in DU-145 cells; format: cell-based, human; details: DU145 cells, 24 h; compound 4 at 1 µM, compound 11 at 6 µM; normalized to B2M, 2^−∆∆Ct vs vehicle (1.00); mean ± SEM
# Protocol: (§4) The […] cells were cultured as previously mentioned. […] Afterwards, they were washed with phosphate-buffered saline. The cellular lysate was prepared with E.Z.N.A.®RNA-Lock Reagent (Omega Bio-tek, Norcross, GA, USA) to preserve and immediately stabilize the total RNA for the subsequent gene expression assays. The total RNA isolated from the cells using the E.Z.N.A.®HP Total RNA Isolation Kit (Omega Bio-tek) was reverse-transcribed to cDNA using the AffinityScript QPCR cDNA Synthesis Kit (Agilent Technologies, Santa Clara, CA, USA) and 1000 ng of the RNA sample.
# (§5) The cDNA synthesized was employed for qPCR using Brilliant III Ultra-Fast SYBR®Green QPCR Master Mix (Agilent Technologies) in an Mx3000P qPCR System (Agilent Technologies), employing a 96-well plate with 20 μL of PCR reaction per well and 10 pmol each of forward and reverse gene-specific primers. Nine genes were analyzed: B2M, Bcl2, CDC25A, CCN2, GSR, HDAC4, mTOR, TNF, TP53 and their quantitative real-time (qPCR) primer sequences are reported in Table S1 (supplementary material). The relative gene expressions were determined using Beta-2-microglobulin (B2M) as housekeeping, and the delta-delta Ct method (2^−∆∆Ct method) with regard to the vehicle-treated group (i.e., the reference group). Five biological replicates were used from each group (treated and reference group). […]
# [9] = tested on: CCN2; assay: RT-qPCR mRNA level of CCN2 in DU-145 cells; format: cell-based, human; details: DU145 cells, 24 h; compound 4 at 1 µM, compound 11 at 6 µM; normalized to B2M, 2^−∆∆Ct vs vehicle (1.00); mean ± SEM
# Protocol: as §4, §5
# [10] = tested on: GSR; assay: RT-qPCR mRNA level of GSR in DU-145 cells; format: cell-based, human; details: DU145 cells, 24 h; compound 4 at 1 µM, compound 11 at 6 µM; normalized to B2M, 2^−∆∆Ct vs vehicle (1.00); mean ± SEM
# Protocol: as §4, §5
# [11] = tested on: HDAC4; assay: RT-qPCR mRNA level of HDAC4 in DU-145 cells; format: cell-based, human; details: DU145 cells, 24 h; compound 4 at 1 µM, compound 11 at 6 µM; normalized to B2M, 2^−∆∆Ct vs vehicle (1.00); mean ± SEM
# Protocol: as §4, §5
# [12] = tested on: TNF; assay: RT-qPCR mRNA level of TNF in DU-145 cells; format: cell-based, human; details: DU145 cells, 24 h; compound 4 at 1 µM, compound 11 at 6 µM; normalized to B2M, 2^−∆∆Ct vs vehicle (1.00); mean ± SEM
# [13] = tested on: TP53; assay: RT-qPCR mRNA level of TP53 in DU-145 cells; format: cell-based, human; details: DU145 cells, 24 h; compound 4 at 1 µM, compound 11 at 6 µM; normalized to B2M, 2^−∆∆Ct vs vehicle (1.00); mean ± SEM
# Protocol: as §4, §5
SMILES,IC50 [1],IC50 [2],IC50 [3],IC50 [4],MSI (mean selective index) [5],−E^I½ (mV) [6],"IC50 ([7]; Homo sapiens, read-out: IC50 range over the cancer cell lines)",IC50 range over the cancer cell lines [7],half-wave potential [6],Relative expression level (mRNA level) CDC25A [8],Relative expression level (mRNA level) CCN2 [9],Relative expression level (mRNA level) GSR [10],Relative expression level (mRNA level) HDAC4 [11],Relative expression level (mRNA level) TNF [12],Relative expression level (mRNA level) TP53 [13]
"CCCCCC(=O)C1=C(Nc2ccccc2)C(=O)c2ccccc2C1=O [Compound 1, 2-(Phenylamino)-3-hexanoylnaphthalene-1,4-dione]",60.89 ± 0.34 µM,62.68 ± 0.53 µM,86.7 ± 2.52 µM,77.3 ± 3.66 µM,1.1,475 mV,60.9 to 86.7 µM,–,–,–,–,–,–,–,–
"CCCCCCCCCC(=O)C1=C(Nc2ccccc2)C(=O)c2ccccc2C1=O [Compound 2, 2-(Phenylamino)-3-decanoylnaphthalene-1,4-dione]",> 100 µM,> 100 µM,> 100 µM,79.8 ± 9.74 µM,< 0.8,480 mV,–,almost devoid of activity,–,–,–,–,–,–,–
"CCCCCCCCCCCC(=O)C1=C(Nc2ccccc2)C(=O)c2ccccc2C1=O [Compound 3, 2-(Phenylamino)-3-dodecanoylnaphthalene-1,4-dione]",> 100 µM,> 100 µM,> 100 µM,> 100 µM,1.0,484 mV,–,almost devoid of activity,–,–,–,–,–,–,–
"COc1cccc(C(=O)C2=C(Nc3ccccc3)C(=O)c3ccccc3C2=O)c1 [Compound 5, 2-(Phenylamino)-3-(3-methoxybenzoyl)naphthalene-1,4-dione]",10.2 ± 0.95 µM,6.63 ± 0.13 µM,12 ± 0.37 µM,30.8 ± 4.07 µM,3.2,500 mV,–,–,–,–,–,–,–,–,–
"COc1ccc(C(=O)C2=C(Nc3ccccc3)C(=O)c3ccccc3C2=O)cc1 [Compound 6, 2-(Phenylamino)-3-(4-methoxybenzoyl)naphthalene-1,4-dione]",19.5 ± 0.95 µM,11.8 ± 0.54 µM,13.3 ± 0.44 µM,38.9 ± 3.3 µM,2.6,800 mV,–,–,–,–,–,–,–,–,–
"COc1ccc(C(=O)C2=C(Nc3ccccc3)C(=O)c3ccccc3C2=O)cc1OC [Compound 7, 2-(Phenylamino)-3-(3,4-dimethoxybenzoyl)naphthalene-1,4-dione]",11.9 ± 0.22 µM,10.6 ± 0.27 µM,15.2 ± 0.88 µM,79.9 ± 10.4 µM,6.4,604 mV,–,–,–,–,–,–,–,–,–
"COc1cc(C(=O)C2=C(Nc3ccccc3)C(=O)c3ccccc3C2=O)cc(OC)c1OC [Compound 8, 2-(Phenylamino)-3-(3,4,5-trimethoxybenzoyl)naphthalene-1,4-dione]",11.7 ± 0.29 µM,4.88 ± 0.52 µM,7.14 ± 0.2 µM,37.4 ± 1.7 µM,4.7,690 mV,–,–,–,–,–,–,–,–,–
"COc1cc(C(=O)C2=C(Nc3ccccc3)C(=O)c3ccccc3C2=O)ccc1O [Compound 9, 2-(Phenylamino)-3-(4-hydroxy-3-methoxybenzoyl)naphthalene-1,4-dione]",12.5 ± 0.55 µM,5.81 ± 0.71 µM,13.8 ± 1.87 µM,47.7 ± 3.29 µM,4.5,595 mV,–,–,–,–,–,–,–,–,–
"Cc1ccc(C(=O)C2=C(Nc3ccccc3)C(=O)c3ccccc3C2=O)cc1 [Compound 10, 2-(Phenylamino)-3-(4-methylbenzoyl)naphthalene-1,4-dione]",11.1 ± 0.57 µM,14.2 ± 0.53 µM,21.5 ± 2.26 µM,78.8 ± 5.53 µM,5.0,770 mV,–,–,–,–,–,–,–,–,–
O=C(C1=C(Nc2ccccc2)C(=O)c2ccccc2C1=O)c1ccco1 [Compound 11],5.45 ± 0.21 µM,4.64 ± 0.23 µM,11.7 ± 0.84 µM,> 100 µM,13.7,578 mV,–,–,−578 mV,0.90 ± 0.05,0.95 ± 0.09,0.94 ± 0.06,0.81 ± 0.07,0.93 ± 0.08,0.87 ± 0.05
O=C(C1=C(Nc2ccccc2)C(=O)c2ccccc2C1=O)c1cccs1 [Compound 12],6.97 ± 0.6 µM,4.2 ± 0.06 µM,11.7 ± 0.89 µM,24.8 ± 1.41 µM,3.3,552 mV,–,–,−552 mV,–,–,–,–,–,–
"O=C(C1=C(Nc2ccccc2)C(=O)c2ccccc2C1=O)c1ccsc1 [Compound 13, 2-(Phenylamino)-3-(thiophene-3-carbonyl)naphthalene-1,4-dione]",8.91 ± 0.82 µM,6.37 ± 0.23 µM,13.8 ± 0.58 µM,20.4 ± 2.77 µM,2.1,635 mV,–,–,−635 mV,–,–,–,–,–,–
"O=C(C1=C(Nc2ccccc2)C(=O)c2ccccc2C1=O)c1ccc[nH]1 [Compound 14, 2-(Phenylamino)-3-(1H-pyrrole-2-carbonyl)naphthalene-1,4-dione]",14.5 ± 0.25 µM,10.7 ± 0.35 µM,21.7 ± 0.22 µM,13.7 ± 1.36 µM,0.9,685 mV,–,–,−685 mV,–,–,–,–,–,–
"COc1cccc2c1C(=O)c1c(O)c3c(c(O)c1C2=O)C[C@@](O)(C(=O)CO)C[C@@H]3O[C@H]1C[C@H](N)[C@H](O)[C@H](C)O1 [DOX, Doxorubicin, reference compound]",0.93 ± 0.06 µM,0.33 ± 0.05 µM,0.46 ± 0.08 µM,4.27 ± 0.34 µM,7.5,–,–,–,–,–,–,–,–,–,–
